We go through five molecules from patent US12370178B2, “Tinostamustine for use in the treatment of t-cell prolymphocytic leukaemia” (Purdue Pharma L.P., priority 2017, dated 2025).

Series [1] concerns leukaemia/lymphoma cells derived from ΔJAK1 mice. In words: ΔJAK1 mature T-cell lymphoma transfer model in mice. In kind it is in vivo. As to conditions: for mean survival: 18 mg/kg i.v. on Day 7, 10, 13, 17, 22. On the procedure:
Transplantable leukaemia/lymphoma cells derived from ΔJAK1 mice (Heinrich et al, Mol. Ther. 2013, 21, 1160-8; nodal/spleen mature T-cell lymphoma based on insertional mutagenesis activating JAK1) were intravenously injected into background-matched mice (to facilitate the generation of uniform cohorts). 2.5×10^6 cells were transplanted intravenously into Rag1-deficient mice. […] Each treatment group was then treated with 18 mg/kg of either bendamustine, fludarabine, EDO-S101, or with vehicle control on days 7, 10, 13, 17, 22 (DMSO).
Mice were injected with leukaemia/lymphoma cells derived from ΔJAK1 mice, as previously described (FIG. 5). ΔJAK1 is a model for mature T-cell lymphoma. Mice were divided into four groups at random post-transplantation. Each group was intravenously administered either fludarabine (18 mg/kg), bendamustine (18 mg/kg) or EDO-S101 (18 mg/kg) at the indicated doses on Day 7, Day 10, Day 13, Day 17 and Day 22. The percentage survival of each cohort was plotted as a function of time (FIG. 5).

Another series deals with T-PLL cells. In words: Western blot analysis of patient T-PLL samples. The note with it: 1 μM, 36 hours. In kind it is cell-based, human. The protocol:
FISH analysis used standard protocols (Vysis, Abbott).
T-PLL cells were cultured in suspension, and treated with either bendamustine (1 μM), vorinostat (1 μM), EDO-S101 (1 μM) or an equimolar combination of vorinostat/bendamustine (1 μM) for 36 hours at the indicated concentrations. After this time, the cells were harvested and lysed, the cell lysate sonicated, centrifuged to remove any cellular debris, and the supernatant collected. The protein concentration of each cell lysate solution (the supernatant) was determined and the western blot performed using standard methods.
The antibodies used were acHistone 3 (Sigma Aldrich), phospho-ATM Serine1981 (Sigma Aldrich), ATM (Sigma Aldrich), phospho-KAP-1 Serine824 (Sigma Aldrich), KAP-1 (Sigma Aldrich), phosphor-p53 Serine15 (Sigma Aldrich), acetyl-p53 (Sigma Aldrich), p53 (Sigma Aldrich), PARP (Sigma Aldrich), cleaved-PARP (Sigma Aldrich), and β-Actin (Sigma Aldrich).
After this time, the cells were harvested, lysed and protein expression levels determined by western blot analysis.
Staining for β-Actin was used as a loading control for each western blot ran (rows a to k, and rows l to o respectively).
On the technique in general: A western blot detects proteins with antibodies after separation by electrophoresis.

In series [2] the test system is primary human T-PLL cells. In words: cells. As to conditions: 48 h, read-out: LC50.
Experimental: (§2) RPMI-1640 medium (Sigma-Aldrich) supplemented with 1% L-Glutamine (200 mM; Sigma-Aldrich), 10% fetal bovine serum (FBS) (Sigma-Aldrich) and Penicillin/Streptomycin (100 U/0.1M; PAA) was used for in-vitro experimentation on suspension cultures of primary T-PLL cells, healthy CD3+ T cells, HH cells, and in co-culture experiments with NKtert cells. Cell suspensions were maintained at a density of 1.0×10^6 cells/mL (primary T-PLL cells) and 2.5×10^5 cells/mL (HH cells) for all cell culture experiments.
(§3) EDO-S101 (EDO MundiPharma), and vorinostat (SAHA; SML0061-5 mg, Sigma-Aldrich) were dissolved in DMSO. […] Cells were treated with each compound (or compounds) at the indicated concentrations and times. Dosing was based on published ranges and IC50/LD50 titrations. Cell apoptosis was determined using dual staining for Annexin-V (AnxV) and 7AAD via flow cytometry.
(§4) To further evaluate apoptosis in cells treated with EDO-S101, primary human T-PLL cells were treated with either vorinostat, bendamustine, EDO-S101, or an equimolar combination of vorinostat and bendamustine, at 0.01 μM, 0.1 μM, 1 μM, 5 μM or 10 μM concentrations, and incubated for 48 hours. Following treatment, cell death was evaluated by staining cells with the apoptosis markers Annexin-V and 7-AAD, and the number of apoptotic cells quantified by flow cytometry. Each experiment was repeated for the indicated number of times, and the average number of apoptosis negative cells plotted and normalised relative to an untreated control sample. A dose response curve (FIG. 3a) for each treatment was subsequently plotted, and the LD50 (median lethal dose) of each treatment determined.
(§5) To evaluate the protections conferred by NKtert cells to primary human T-PLL cells, NKtert cells and T-PLL cells were co-cultured for treatment with EDO-S101. Primary T-PLL cells with (FIG. 3b) and without (FIG. 3c) co-cultures of NKtert cells were treated with increasing concentrations (0.1, 1, or 10 μM) of vorinostat, bendamustine, an equimolar combination of vorinostat and bendamustine, or EDO-S101, and incubated for 48 hours.
(§6) Following treatment, cell death was evaluated by staining cells with the apoptosis markers Annexin-V and 7-AAD, and the number of apoptotic cells quantified by flow cytometry. Each experiment was repeated for the indicated number of times, and the average number of apoptosis negative cells plotted as a ratio relative to an untreated control sample (FIG. 3b, FIG. 3c).
The next series relates to CD2-MTCP1 cells. In words: CD2-MTCP1p13 leukaemia transfer model in mice. It is filed as in vivo. The note with it: for increase in leukemic blood leukocyte (WBC) count: Day 14 vs Day 9 post-transplantation, compared to control and fludarabine; for average post-mortem spleen weight: day 22 post-transplantation, compared to fludarabine or control. The source says: DBA2×C57B6JF1 mice were used as recipients in all experiments. Transplantable leukaemia/lymphoma cells derived from CD2-MTCP1p13 tg mice (Gritti et al, Blood 1998, 92, 268-73; blood, spleen, and bone marrow) were intraperitoneally injected into background-matched mice (to facilitate the generation of uniform cohorts). 1×10^7 cells from CD2-MTCP1p13 mice were intraperitoneally injected into syngeneic recipients (n=26). Starting on day 10 post-transplantation, mice with a homogeneous distribution of leukemic blood leukocytes (WBC) were selected and randomly assigned into four treatment groups. Each group was then treated with either vehicle control (DMSO), fludarabine (34 mg/kg days 10, 15, 17, 21), bendamustine (day 10 at 60 mg/kg, days 15, 17, 21 at 20 mg/kg), and EDO-S101 (day 10 at 50 mg/kg, days 15, 17, 21 at 20 mg/kg) on the indicated days at the indicated doses.
Mice were injected with leukaemia cells derived from CD2-MTCP1 mice, as previously described (FIG. 4a).
CD2-MTCP1 cells are an aggressive, transplantable subline and are suitable for in vivo analysis as a T-PLL like model. […] Each group was intravenously administered either fludarabine (34 mg/kg), bendamustine (Day 10, 60 mg/kg; Day 15-21, 20 mg/kg) or EDO-S101 (Day 10, 50 mg/kg; Day 15-21, 20 mg/kg) at the indicated doses on Day 10, Day 15, Day 17, […] Day 21 post-transplantation. Samples of blood were taken at regular intervals (Day 9 and Day 14 post-transplantation), and the mice sacrificed at 22 days post-transplantation (FIG. 4a).
The blood samples taken were analysed for leukemic blood leukocyte levels (WBC), and the average cell count in each group determined.
Following sacrifice of the mice on day 22 post-transplantation, the post-mortem spleen weights of each mouse were determined (FIG. 4c). The reduced average spleen weight in mouse cohorts treated with bendamustine or EDO-S101, compared to cohorts treated with fludarabine or a control, corroborate the findings previously discussed in FIG. 4b. Tumour manifestation was therefore shown to be less advanced in cohorts treated with EDO-S101 or single-agent bendamustine, compared to fludarabine treated or control cohorts.

Another series deals with healthy CD3+ T-cells. The series can be described thus: Healthy CD3+ T-cell cytotoxicity. It is filed as cell-based, human. As to conditions: selectivity T-PLL over healthy T-cells. The source says: (§1) Healthy CD3+ T-cells were isolated from healthy human donors.
The nature of series [3]: Healthy CD3+ T-cell cytotoxicity. It is filed as cell-based, human. The note with it: human, healthy CD3+ T-cells, suspension culture; read-out: LC50 (the source's name).
Excerpt: as §1

For the next series, the system named is HH cells. The series can be described thus: HH cell viability, Annexin-V/7-AAD flow cytometry. In kind it is cell-based, human. The note with it: 48 hours treatment. The protocol:
The alkylating agent bendamustine (MundiPharma) was dissolved in methanol.
Human primary T-PLL cells are unsuitable for cultivation under standard laboratory cell culture conditions, in part, due to their high levels of genomic heterogeneity and variable phenotypes. HH cells are derived from a highly chemotherapy resistant cutaneous lymphoma, and are suitable for cultivation under laboratory conditions. […] HH cells were therefore selected for the in vitro validation of EDO-S101.
To evaluate the cytotoxicity of EDO-S101 in comparison to bendamustine and vorinostat (SAHA), HH cells were treated with either EDO-S101, bendamustine, vorinostat or an equimolar bendamustine/vorinostat combination over a period 48 hours. Cells were treated with either 0.1 μM, 1 μM, 2.5 μM, 5 μM or 10 μM solutions of the indicated compounds (FIG. 1a).
Annexin-V specifically targets and identifies apoptotic cells. 7-AAD is a marker of late stage apoptotic, or necrotic cells. The number of Annexin-V and 7-AAD negative cells was counted for each sample.
(In general: A flow cytometer gives signals particle by particle.)

Another series relates to NKtert cells. In words: NKtert bone marrow stromal cell viability, MTT assay. As to conditions: 0.1, 1, 5 or 10 μM, 48 hours. On the procedure: Cells were cultured in a HERAcell incubator (Thermo Scientific Heraeus) at 37° C. and 5% CO2 with 90% humidity. CD4+ mature T-cell leukemia HH cells were originally isolated from a patient with Sézary Syndrome (Starkebaum et al., 1991). NKtert (human bone marrow stromal cells [BMSC]) were purchased from RIKEN Cell Bank in 2011. Only cells derived from the original cell stock as purchased, and which had been propagated for 2 to 3 passages before long-term storage in liquid nitrogen, were used. Cell cultures were terminated after the 10th passage (4 to 6 weeks of being in culture). Cells were authenticated following thawing by evaluation of characteristic growth behaviour and by flow cytometry. Cells were routinely tested for the presence of mycoplasma, using standard PCR protocols (primers: for1: 5′-acaccatgggagytggtaat-3′, (SEQ ID No; 1) rev1: 5′-cttcwtcgattycagacccaaggcat-3 (SEQ ID NO: 2)′, for2: 5′-gtgsggmtggatcacctcct-3 (SEQ ID NO: 3)′, rev2: 5′-gcatccaccawawacyctt-3′ (SEQ ID NO: 4)).
Consequently, the effect on cell viability of NKtert bone marrow stromal cells (BMSC) feeders cells alone was also investigated. Cells were treated with either bendamustine, vorinostat, an equimolar combination of bendamustine and vorinostat, or EDO-S101, at either 0.1, 1, 5 or 10 μM concentrations, incubated for 48 hours, and cell viability assessed using MTT assays (FIG. 3d).

Series [4] relates to T-PLL/NKtert co-cultured cells. In words: T-PLL/NKtert co-culture apoptosis, Annexin-V/7-AAD flow cytometry. It is filed as cell-based, human. The note with it: 48 hours; for overcoming NKtert associated protection of co-cultured T-PLL cells: 0.1, 1 or 10 μM. On the procedure:
For co-culture experiments human bone marrow stromal cells (BMSC) NKtert cells (RIKEN BRC, Japan) were seeded at concentrations of 1.5×10^4 cells/well (96 well plate) and incubated at 37° C. in 5% CO2. After 24 hours, NKtert cells at approximately 60-80% confluency were treated with 0.02 mg/mL Mitomycin C for 3 hours in […], and then washed twice with PBS (Life Technologies). After another 24 hours, 4×10^5 T-PLL cells were added per well (with and without feeder cell support) and treated for 48 hours with the indicated compounds.
Referring to FIG. 3b, the control sample Ø on the left hand graph is normalised to 1 for normal T-PLL cells.

Series [5] concerns primary human T-PLL cells.
Experimental: as §2, §3, §4, §5, §6
The test system of another series is T-PLL. The note with it: cited from earlier work.
[6] abbreviates: vs bendamustine, vorinostat or combination.

`Cn1c(CCCCCCC(=O)NO)nc2cc(N(CCCl)CCCl)ccc21` [EDO-S101, 7-(5-(bis(2-chloroethyl)amino)-1-methyl-1H-benzo[d]imidazol-2-yl)-N-hydroxyheptanamide]: the “increase in average survival time compared to bendamustine or fludarabine” value in series [1] (18 mg/kg i.v.) is given as not above 8 days. Moreover, in series [1], the mean survival is given as 26 days. In the series with T-PLL cells (setting [6]), the “accumulation of acetyl-p53” value was “greatest accumulation”, the “accumulation of p-p53” value was “greatest accumulation”, the “cleaved PARP (cPARP)” value is “greatest increase” and the “levels of pATM” value is “largest increase”. In addition, in the series on T-PLL cells (setting [6]), the “levels of pKAP1” value is recorded as “largest increase” and the “levels of γH2AX” value was “largest increase”. In addition, the “acetylation of histone3 (acHistone3)” value with T-PLL cells (vs vorinostat or vorinostat + bendamustine) is listed as “largest increase”. Also, in [2], the CC50 came to 1 µM. Moreover, in the series with CD2-MTCP1 cells, the “increase in leukemic blood leukocyte (WBC) count” value is given as “significantly delayed” and the “average post-mortem spleen weight” value is listed as “reduced”. Besides, the “fold more potent against T-PLL cells compared to healthy CD3+ T-cells” value in the series on healthy CD3+ T-cells was “approximately 4 fold”. In series [3], the CC50 came to 4.4 µM. For the same molecule, in the series with HH cells, the “LD50 (median lethal dose)” value came out at 1.5 µM. Further, the “reduction in viability of NKtert cells” value in the series on NKtert cells is listed as “largely comparable”. In series [4], the “overcoming NKtert associated protection of co-cultured T-PLL cells” value (“overcoming NKtert associated protection” for short) is listed as “overcame the protection conferred by the NKtert cells”. In addition, the “approximate cell death count” value in series [4] (co-cultured T-PLL/NKtert cells, 10 μM) is listed as “greater than 95%”. In series [5] (LC50 1.0 μM vs 4.4 μM), the “fold increase in potency against T-PLL cells compared to combination of vorinostat and bendamustine” value is approximately 4 fold. Further, the “approximate cell death count” value in series [5] (T-PLL cells monoculture, 10 μM, 48 hours) was “greater than 95%”.
On to `Cn1c(CCCC(=O)O)nc2cc(N(CCCl)CCCl)ccc21` [bendamustine, reference compound], for which the mean survival in [1] came to 18 days. The CC50 in [2] turned out to be 7.3 µM. Moreover, in the series on CD2-MTCP1 cells, the “increase in leukemic blood leukocyte (WBC) count” value was “significantly delayed” and the “average post-mortem spleen weight” value is “reduced”. Besides, the “LD50 (median lethal dose)” value in the series with HH cells is 8.0 µM. For the same molecule, the “reduction in viability of NKtert cells” value in the series on NKtert cells is recorded as “did not have a pronounced concentration dependent effect”. The “overcoming NKtert associated protection” value in [4] is recorded as “not as effective as EDO-S101”.
Regarding `Nc1nc(F)nc2c1ncn2[C@@H]1O[C@H](CO)[C@@H](O)[C@@H]1O` [fludarabine, reference compound], the mean survival in series [1] stood at 19 days.
In the case of `O=C(CCCCCCC(=O)Nc1ccccc1)NO` [vorinostat], the CC50 in [2] was determined as 20.4 µM. Further, the “LD50 (median lethal dose)” value with HH cells was found to be 2.7 µM. Besides, the “overcoming NKtert associated protection” value in [4] is “not as effective as EDO-S101”.
Turning to “Alemtuzumab: monoclonal anti-CD52 antibody”, in the series on T-PLL (T-PLL patients), the overall response rates is listed as 51-95%. Also, in the series on T-PLL (patients achieving a complete response), the median survival is given as 15-19 months.
